Measured values: patent US11572341B2, “Biguanide compound and use thereof” (ImmunoMet Therapeutics Inc., priority 2014, dated 2023)
Where a name gives a salt, the structure may show the parent alone.

How the values were obtained:
HCT116 cells = assay: Inhibitory effect against cancer cell proliferation (MTT); type: cell-based, human; conditions: Homo sapiens, HCT-116; HCT116, MTT, 48 hours; read-out: IC50 (uM) @ HCT116
Experimental: The formazane crystals thus formed were dissolved using dimethyl sulfoxide (DMSO) and absorbance of the solution was measured at 560 nm. After culturing for 48 hours, […] synthesized in Examples was indicated as cell viability (%) according to each treated concentration.

AMPKa [pT172] = assay: AMPKa activation [pT172] in MCF7 cell; type: cell-based

IC50 (HCT116 cells) | Structure (SMILES) | AMPKa activation [pT172] (Unit/ml) @ MCF7 cell (AMPKa [pT172]; 5 uM) | AMPKa activation [pT172] (Unit/ml) @ MCF7 cell (AMPKa [pT172]; 10 uM) | AMPKa activation [pT172] (Unit/ml) @ MCF7 cell (AMPKa [pT172]; 50 uM)
> 100 µM | Cl.N=C(NC1=NC(=O)CCN1)N1CCCCC1 [Example 156, N-(4-oxo-1,4,5,6-tetrahydropyrimidin-2-yl)piperidin-1-carboximidamide Hydrochloride] | 3.6 Unit/ml | 2.6 Unit/ml | 4.9 Unit/ml
50.6 µM | Cl.N=C(NC(=N)N1CCCC1)Nc1ccc(F)c(Cl)c1 [Example 77, N1-pyrrolidin-N5-(3-chloro-4-fluoro)phenyl Biguanide Hydrochloride] | 4.5 Unit/ml | 5.7 Unit/ml | 13.9 Unit/ml
35.7 µM | C=CCNC(=N)NC(=N)N.Cl [Example 111, N1-(2-prophene) Biguanide Hydrochloride] | 11.4 Unit/ml | 12.1 Unit/ml | 30.2 Unit/ml
49.2 µM | Cl.N=C(N)N/C(=N/C1CCCCCC1)NCc1ccc(Cl)cc1 [Example 98, N1-(4-chloro)benzyl-N2-cycloheptyl Biguanide Hydrochloride] | 7.2 Unit/ml | 9.6 Unit/ml | 37.5 Unit/ml
124 µM | Cl.N=C(N)NC(=N)NCCc1ccc2c(c1)OCO2 [Example 143, N1-2-(benzo[d][1,3]dioxol-5-yl)ethyl Biguanide Hydrochloride] | 5.5 Unit/ml | 5.7 Unit/ml | 7.2 Unit/ml
> 100 µM | CC(=O)Nc1ccc(NC(=N)NC(=N)N)cc1.Cl [Example 125, N1-4-(N-acetylamino)phenyl Biguanide Hydrochloride] | – | – | 5.0 Unit/ml
56.7 µM | Cl.N=C(N)NC(=N)NCc1ccccc1 [Example 124, N1-benzyl Biguanide Hydrochloride] | – | – | 8.4 Unit/ml
> 100 µM | CC(=O)c1ccc(NC(=N)NC(=N)N)cc1.Cl [Example 117, N1-(4-acetyl)phenyl Biguanide Hydrochloride] | – | – | 6.2 Unit/ml
> 100 µM | Cl.N=C(N)NC(=N)NCCc1ccc(O)cc1 [Example 138, N1-(4-hydroxy)phenethyl Biguanide Hydrochloride] | 3.7 Unit/ml | 3.7 Unit/ml | 4.2 Unit/ml
58.3 µM | Cl.N=C(NC(=N)N1CCCC1)Nc1cccc(Cl)c1Cl [Example 78, N1-pyrrolidin-N5-(2,3-dichloro)phenyl Biguanide Hydrochloride] | 3.4 Unit/ml | 3.4 Unit/ml | 3.8 Unit/ml
7.5 µM | C/N=C(\NCCc1ccccc1)NC(=N)N(C)C [Example 97, N1-phenethyl-N2-methyl-N5,N5-dimethyl Biguanide Hydrochloride] | – | – | –

The remaining lines, values behind:

Structure (SMILES) | IC50 (HCT116 cells) | AMPKa activation [pT172] (Unit/ml) @ MCF7 cell (AMPKa [pT172]; 5 uM) | AMPKa activation [pT172] (Unit/ml) @ MCF7 cell (AMPKa [pT172]; 10 uM) | AMPKa activation [pT172] (Unit/ml) @ MCF7 cell (AMPKa [pT172]; 50 uM)
Cl.N=C(NC(=N)N1CCCCC1)Nc1ccc(N2CCOCC2)cc1 [Example 71, N1-piperidin-N5-(4-morpholin-4-yl)phenyl Biguanide Hydrochloride] | > 100 µM | 3.8 Unit/ml | 4.3 Unit/ml | 5.8 Unit/ml
CCOC1CCN(C(=N)NC(=N)Nc2ccc(OC(F)(F)F)cc2)CC1.Cl [Example 26, N1-(4-ethoxy)piperidin-N5-(4-trifluoromethoxy)phenyl Biguanide Hydrochloride] | 9.7 µM | 3.6 Unit/ml | 6.6 Unit/ml | cell death
CC1CCN(C(=N)NC(=N)Nc2ccc(C(F)(F)F)c(F)c2)CC1.Cl [Example 57, N1-(4-methyl)piperidin-N5-(3-fluoro-4-trifluoromethyl)phenyl Biguanide Hydrochloride] | 2.5 µM | 6.7 Unit/ml | 12.1 Unit/ml | cell death
CCOC1CCN(C(=N)NC(=N)Nc2ccc(C(F)(F)F)cc2)CC1.Cl [Example 23, N1-(4-ethoxy)piperidin-N5-(4-trifluoromethyl)phenyl Biguanide Hydrochloride] | 12.7 µM | 7.7 Unit/ml | 6.6 Unit/ml | cell death
CC1CCN(C(=N)NC(=N)NCc2cccc(C(F)(F)F)c2)CC1.Cl [Example 60, N1-(4-methyl)piperidin-N5-(3-trifluoromethyl)benzyl Biguanide Hydrochloride] | 15.4 µM | 4.6 Unit/ml | 7.8 Unit/ml | 20.9 Unit/ml
CN1CCN(C(=N)NC(=N)Nc2cccc(Cl)c2)CC1.Cl [Example 29, N1-(4-methyl)piperazin-N5-(3-chloro)phenyl Biguanide Hydrochloride] | > 100 µM | 4.0 Unit/ml | 5.4 Unit/ml | 6.8 Unit/ml
CN1CCN(C(=N)NC(=N)Nc2ccccc2F)CC1.Cl [Example 34, N1-(4-methyl)piperazin-N5-(2-fluoro)phenyl Biguanide Hydrochloride] | > 100 µM | 4.5 Unit/ml | 3.7 Unit/ml | 7.0 Unit/ml
Cl.N=C(NC(=N)N1CC=CC1)N1CC=CC1 [Example 67, N1-2,5-dihydro-1H-pyrrol-N5-2,5-dihydro-1H-pyrrole Biguanide Hydrochloride] | 147 µM | 3.2 Unit/ml | 2.9 Unit/ml | 4.8 Unit/ml
CC1CCN(C(=N)NC(=N)Nc2cccc(OC(F)(F)F)c2)CC1.Cl [Example 49, N1-(4-methy)piperidin-N5-(3-trifluoromethoxy)phenyl Biguanide Hydrochloride] | 5.1 µM | 9.3 Unit/ml | 13.7 Unit/ml | cell death
CC1CC(C)CN(C(=N)NC(=N)Nc2ccc(OC(F)(F)F)cc2)C1.Cl (centres unmarked) [Example 62, N1-(3,5-dimethyl)piperidin-N5-(4-trifluoromethoxy)phenyl Biguanide Hydrochloride] | 2.8 µM | 8.5 Unit/ml | 26.6 Unit/ml | cell death
CCCCNC(=N)NC(=N)N1CCN(C)CC1.Cl [Example 36, N1-(4-methy)piperazin-N5-butyl Biguanide Hydrochloride] | > 100 µM | 5.5 Unit/ml | 5.8 Unit/ml | 4.8 Unit/ml
CCCc1ccccc1NC(=N)NC(=N)N1CCCCC1.Cl [Example 74, N1-piperidin-N5-(2-propyl)phenyl Biguanide Hydrochloride] | 48.3 µM | 4.9 Unit/ml | 5.3 Unit/ml | 8.3 Unit/ml
CC1CCCN(C(=N)NC(=N)Nc2cccc(C(F)(F)F)c2)C1.Cl (centres unmarked) [Example 51, N1-(3-methyl)piperidin-N5-(3-trifluoromethyl)phenyl Biguanide Hydrochloride] | 6.6 µM | 12.5 Unit/ml | 15.2 Unit/ml | cell death
CN1CCN(C(=N)NC(=N)Nc2cccc(C(F)(F)F)c2)CC1.Cl [Example 21, N1-(4-methyl)piperazin-N5-(3-trifluoromethyl)phenyl Biguanide Hydrochloride] | 43.2 µM | 6.0 Unit/ml | 5.8 Unit/ml | 14.8 Unit/ml
CCCN(CCC)C(=N)NC(=N)N(CCC)CCC.Cl [Example 16, N1,N1-dipropyl-N5N-dipropyl Biguanide Hydrochloride] | 45.9 µM | 7.0 Unit/ml | 9.4 Unit/ml | 13.6 Unit/ml
CC(=O)c1ccc(NC(=N)NC(=N)N2CCCC2)cc1.Cl [Example 70, N1-pyrrolidin-N5-(4-acetyl)phenyl Biguanide Hydrochloride] | > 100 µM | 3.5 Unit/ml | 4.0 Unit/ml | 5.4 Unit/ml
Cl.N=C(NCc1cccc(C(F)(F)F)c1)NC(=N)Nc1cccnc1 [Example 43, N1-3-pyridin-N5-(3-trifluoromethyl)benzyl Biguanide Hydrochloride] | 100 µM | 3.0 Unit/ml | 4.3 Unit/ml | 7.6 Unit/ml
Cl.N=C(NC(=N)N1CCCC1)Nc1ccc(Br)cc1 [Example 72, N1-pyrrolidin-N5-4-bromo)phenyl Biguanide Hydrochloride] | 37.7 µM | – | – | –
